Measurements as given in patent US20250064941A1, “SIGLEC LIGANDS, CONJUGATES, AND METHODS OF USE THEREOF” (Osprey Biopharmaceuticals, Inc., priority 2023, published 2025).

Legend:
[1] = molecular target: T1, mouse Siglec-2-Fc-Avi (CD22) (Mus musculus, UniProt P35329); experiment: SPR binding affinity to mouse CD22; settings: steady-state analysis
T1 construct: made in house
T1 sequence (P35329 22-708 limits assumed): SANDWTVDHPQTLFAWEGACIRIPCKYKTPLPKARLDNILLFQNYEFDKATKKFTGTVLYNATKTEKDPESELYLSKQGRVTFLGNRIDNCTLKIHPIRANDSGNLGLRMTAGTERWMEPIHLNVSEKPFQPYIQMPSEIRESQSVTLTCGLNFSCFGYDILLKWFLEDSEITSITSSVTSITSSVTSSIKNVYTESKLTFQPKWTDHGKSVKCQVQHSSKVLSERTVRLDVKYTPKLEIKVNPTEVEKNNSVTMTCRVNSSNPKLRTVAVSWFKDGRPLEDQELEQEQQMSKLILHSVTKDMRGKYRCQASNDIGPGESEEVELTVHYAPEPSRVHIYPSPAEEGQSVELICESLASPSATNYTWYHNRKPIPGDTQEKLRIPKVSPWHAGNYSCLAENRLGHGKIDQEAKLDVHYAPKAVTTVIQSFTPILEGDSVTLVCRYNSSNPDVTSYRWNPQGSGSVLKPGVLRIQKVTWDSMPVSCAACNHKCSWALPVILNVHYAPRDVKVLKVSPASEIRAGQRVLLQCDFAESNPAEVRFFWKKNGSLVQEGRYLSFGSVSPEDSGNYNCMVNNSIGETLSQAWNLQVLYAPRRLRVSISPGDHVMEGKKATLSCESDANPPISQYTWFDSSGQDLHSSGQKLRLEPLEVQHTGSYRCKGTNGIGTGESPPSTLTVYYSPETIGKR
Outline: (§1)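 Using a Biacore 8K, compounds were tested against biotinylated CD22 captured after sialidase treatment. The running buffer held 1% DMSO, corrected with a 0.5–2% DMSO series. Affinity was derived by steady-state analysis.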

[2] = molecular target: cynomolgus Siglec-2/CD22 (Macaca fascicularis, UniProt A0A2K5WCZ6); experiment: biochemical; type: binding; settings: SPR, steady-state analysis; read-out: Affinity cyno CD22
Outline: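 Compound binding measured by steady-state SPR analysis, 120 s dissociation, in HEPES-NaCl-Tween buffer pH 7.5 containing 1% DMSO, DMSO solvent-corrected. Surface: cyno CD22, sialic acids first stripped by SialoExo for 4 h at 37° C., then amine-coupled onto CM5.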

[3] = molecular target: T2, human Siglec-2/CD22 protein (Homo sapiens, UniProt P20273); experiment: SPR binding affinity to human CD22; settings: steady-state analysis
T2 construct: purchased Acro Biosystems SI2-H82E3
T2 sequence (P20273 20-847): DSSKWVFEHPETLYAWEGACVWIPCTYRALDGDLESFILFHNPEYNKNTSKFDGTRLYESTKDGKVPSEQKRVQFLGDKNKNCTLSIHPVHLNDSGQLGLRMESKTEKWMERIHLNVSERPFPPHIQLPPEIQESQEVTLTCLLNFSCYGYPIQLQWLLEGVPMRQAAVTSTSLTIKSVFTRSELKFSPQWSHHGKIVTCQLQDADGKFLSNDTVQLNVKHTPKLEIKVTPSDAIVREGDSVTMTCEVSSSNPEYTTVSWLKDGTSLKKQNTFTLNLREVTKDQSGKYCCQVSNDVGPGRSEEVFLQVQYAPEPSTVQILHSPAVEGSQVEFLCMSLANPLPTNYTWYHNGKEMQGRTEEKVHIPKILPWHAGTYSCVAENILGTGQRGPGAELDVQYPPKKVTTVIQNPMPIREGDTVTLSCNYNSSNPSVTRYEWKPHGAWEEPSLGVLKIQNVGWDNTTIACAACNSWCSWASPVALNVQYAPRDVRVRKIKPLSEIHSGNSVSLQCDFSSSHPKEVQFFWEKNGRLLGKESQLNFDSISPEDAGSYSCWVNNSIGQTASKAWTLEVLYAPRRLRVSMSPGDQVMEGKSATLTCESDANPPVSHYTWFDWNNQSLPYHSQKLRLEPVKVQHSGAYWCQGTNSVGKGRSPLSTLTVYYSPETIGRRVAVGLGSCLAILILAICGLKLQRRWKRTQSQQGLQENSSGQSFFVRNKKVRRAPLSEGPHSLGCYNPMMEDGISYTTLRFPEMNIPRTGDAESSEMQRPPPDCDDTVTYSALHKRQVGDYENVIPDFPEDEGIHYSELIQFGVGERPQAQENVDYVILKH
Outline: as §1

Sequence of cynomolgus Siglec-2/CD22 (A0A2K5WCZ6 entry or part of it): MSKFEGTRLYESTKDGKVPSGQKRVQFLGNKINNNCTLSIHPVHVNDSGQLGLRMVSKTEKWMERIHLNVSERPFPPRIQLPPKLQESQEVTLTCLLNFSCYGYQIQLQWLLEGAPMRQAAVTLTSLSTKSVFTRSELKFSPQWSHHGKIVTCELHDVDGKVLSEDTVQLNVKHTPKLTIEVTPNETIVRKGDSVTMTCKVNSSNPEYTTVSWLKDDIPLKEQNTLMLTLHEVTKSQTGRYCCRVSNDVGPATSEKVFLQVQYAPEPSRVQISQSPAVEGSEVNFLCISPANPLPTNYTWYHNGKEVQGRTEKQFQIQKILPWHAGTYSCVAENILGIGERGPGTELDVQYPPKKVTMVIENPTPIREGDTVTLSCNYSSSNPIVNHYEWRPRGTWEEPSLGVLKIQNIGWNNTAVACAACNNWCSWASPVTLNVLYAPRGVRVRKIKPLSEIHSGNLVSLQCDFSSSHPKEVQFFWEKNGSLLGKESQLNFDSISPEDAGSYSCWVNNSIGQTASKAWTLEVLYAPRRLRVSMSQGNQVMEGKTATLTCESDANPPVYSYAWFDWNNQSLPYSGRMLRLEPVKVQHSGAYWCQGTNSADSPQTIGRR

Work on `C#CCN(CC(=O)O)C(=O)CCCCCO[C@]1(C(=O)O)C[C@H](O)[C@@H](NC(=O)CO)[C@H]([C@H](O)[C@H](O)CNC(=O)Cc2ccc(Cl)cc2)O1` [Compound 100, (2R,4S,5R,6R)-2-((6-((carboxymethyl)(prop-2-yn-1-yl)amino)-6-oxohexyl)oxy)-6-((1R,2R)-3-(2-(4-chlorophenyl)acetamido)-1,2-dihydroxypropyl)-4-hydroxy-5-(2-hydroxyacetamido)tetrahydro-2H-pyran-2-carboxylic acid] yielded a Kd [1] of less than 1000 nM, a Kd [2] of less than 1000 nM and a Kd [3] of less than 1000 nM.

`C#CCN(CC(=O)O)C(=O)CCCO[C@]1(C(=O)O)C[C@H](O)[C@@H](NC(=O)CO)[C@H]([C@H](O)[C@H](O)CNC(=O)Cc2ccc(Cl)cc2)O1` [Compound 101, (2R,4S,5R,6R)-2-(4-((carboxymethyl)(prop-2-yn-1-yl)amino)-4-oxobutoxy)-6-((1R,2R)-3-(2-(4-chlorophenyl)acetamido)-1,2-dihydroxypropyl)-4-hydroxy-5-(2-hydroxyacetamido)tetrahydro-2H-pyran-2-carboxylic acid] showed a Kd [1] of 1000 to 10000 nM, a Kd [2] of 1000 to 10000 nM and a Kd [3] of 1000 to 10000 nM.

For `C#CCC(NC(=O)CCCO[C@]1(C(=O)O)C[C@H](O)[C@@H](NC(=O)CO)[C@H]([C@H](O)[C@H](O)CNC(=O)Cc2ccc(Cl)cc2)O1)C(=O)O` (stereo partly drawn) [Compound 102, (2R,4S,5R,6R)-2-(4-((1-carboxybut-3-yn-1-yl)amino)-4-oxobutoxy)-6-((1R,2R)-3-(2-(4-chlorophenyl)acetamido)-1,2-dihydroxypropyl)-4-hydroxy-5-(2-hydroxyacetamido)tetrahydro-2H-pyran-2-carboxylic acid], the Kd [1] was 1000 to 10000 nM, the Kd [2] was 1000 to 10000 nM and the Kd [3] was 1000 to 10000 nM.

With `C#CCOCCCCCCC(O)[C@]1(C(=O)O)C[C@H](O)[C@@H](NC(=O)CO)[C@H]([C@H](O)[C@H](O)CNC(=O)Cc2ccc(Cl)cc2)O1` (stereo partly drawn) [Compound 103, (2S,4S,5R,6R)-6-((1R,2R)-3-(2-(4-chlorophenyl)acetamido)-1,2-dihydroxypropyl)-4-hydroxy-2-(1-hydroxy-7-(prop-2-yn-1-yloxy)heptyl)-5-(2-hydroxyacetamido)tetrahydro-2H-pyran-2-carboxylic acid] the Kd [1] was 1000 to 10000 nM, the Kd [2] was less than 1000 nM and the Kd [3] was less than 1000 nM.

`NCC(O)CO[C@]1(C(=O)O)C[C@H](O)[C@@H](NC(=O)CO)[C@H]([C@H](O)[C@H](O)CNC(=O)Cc2ccc(Cl)cc2)O1` (stereo partly drawn) [Compound 104, (2R,4S,5R,6R)-2-(3-amino-2-hydroxypropoxy)-6-((1R,2R)-3-(2-(4-chlorophenyl)acetamido)-1,2-dihydroxypropyl)-4-hydroxy-5-(2-hydroxyacetamido)tetrahydro-2H-pyran-2-carboxylic acid] showed a Kd [1] greater than 10000 nM, a Kd [2] greater than 10000 nM and a Kd [3] greater than 10000 nM.

With `C#CCOP(=O)(O)OCCCCCCO[C@]1(C(=O)O)C[C@H](O)[C@@H](NC(=O)CO)[C@H]([C@H](O)[C@H](O)CNC(=O)Cc2ccc(Cl)cc2)O1` [Compound 105, (2R,4S,5R,6R)-6-((1R,2R)-3-(2-(4-chlorophenyl)acetamido)-1,2-dihydroxypropyl)-4-hydroxy-2-((6-((hydroxy(prop-2-yn-1-yloxy)phosphoryl)oxy)hexyl)oxy)-5-(2-hydroxyacetamido)tetrahydro-2H-pyran-2-carboxylic acid] the Kd [1] was less than 1000 nM, the Kd [2] was less than 1000 nM and the Kd [3] was less than 1000 nM.

Work on `O=C(Cc1ccc(Cl)cc1)NC[C@@H](O)[C@@H](O)[C@@H]1O[C@@](OCC2CCOCC2)(C(=O)O)C[C@H](O)[C@H]1NC(=O)CO` [Compound 106, (2R,4S,5R,6R)-6-((1R,2R)-3-(2-(4-chlorophenyl)acetamido)-1,2-dihydroxypropyl)-4-hydroxy-5-(2-hydroxyacetamido)-2-((tetrahydro-2H-pyran-4-yl)methoxy)tetrahydro-2H-pyran-2-carboxylic acid] yielded a Kd [1] of 1000 to 10000 nM, a Kd [2] of less than 1000 nM and a Kd [3] of less than 1000 nM.

With `O=C(Cc1ccc(Cl)cc1)NC[C@@H](O)[C@@H](O)[C@@H]1O[C@@](OCCCCCCNC(=O)c2ccccc2)(C(=O)O)C[C@H](O)[C@H]1NC(=O)CO` [Compound 108, (2R,4S,5R,6R)-2-((6-benzamidohexyl)oxy)-6-((1R,2R)-3-(2-(4-chlorophenyl)acetamido)-1,2-dihydroxypropyl)-4-hydroxy-5-(2-hydroxyacetamido)tetrahydro-2H-pyran-2-carboxylic acid] the Kd [1] was less than 1000 nM, the Kd [2] was less than 1000 nM and the Kd [3] was less than 1000 nM.

Compound `C#CCCCCCCCCO[C@]1(C(=O)O)C[C@H](O)[C@@H](NC(=O)CO)[C@H]([C@H](O)[C@H](O)CNC(=O)Cc2ccc(Cl)cc2)O1` [Compound 109, (2R,4S,5R,6R)-6-((1R,2R)-3-(2-(4-chlorophenyl)acetamido)-1,2-dihydroxypropyl)-2-(dec-9-yn-1-yloxy)-4-hydroxy-5-(2-hydroxyacetamido)tetrahydro-2H-pyran-2-carboxylic acid] has a Kd [1] of less than 1000 nM, a Kd [2] of less than 1000 nM and a Kd [3] of less than 1000 nM.

Work on `C#CCCCCCCO[C@]1(C(=O)O)C[C@H](O)[C@@H](NC(=O)CO)[C@H]([C@H](O)[C@H](O)CNC(=O)Cc2ccc(Cl)cc2)O1` [Compound 110, (2R,4S,5R,6R)-6-((1R,2R)-3-(2-(4-chlorophenyl)acetamido)-1,2-dihydroxypropyl)-4-hydroxy-5-(2-hydroxyacetamido)-2-(oct-7-yn-1-yloxy)tetrahydro-2H-pyran-2-carboxylic acid] yielded a Kd [1] of less than 1000 nM, a Kd [2] of less than 1000 nM and a Kd [3] of less than 1000 nM.

In the case of `C#CCOCCOCCOCCOCCC(=O)NCCOCCOCCO[C@]1(C(=O)O)C[C@H](O)[C@@H](NC(=O)CO)[C@H]([C@H](O)[C@H](O)CNC(=O)Cc2ccc(Cl)cc2)O1` [Compound 111, (2R,4S,5R,6R)-6-((1R,2R)-3-(2-(4-chlorophenyl)acetamido)-1,2-dihydroxypropyl)-4-hydroxy-5-(2-hydroxyacetamido)-2-((10-oxo-3,6,13,16,19,22-hexaoxa-9-azapentacos-24-yn-1-yl)oxy)tetrahydro-2H-pyran-2-carboxylic acid], the Kd [1] is reported as 1000 to 10000 nM, the Kd [2] is reported as less than 1000 nM and the Kd [3] is reported as 1000 to 10000 nM.

`C#CCNc1c(NCCCCCCO[C@]2(C(=O)O)C[C@H](O)[C@@H](NC(=O)CO)[C@H]([C@H](O)[C@H](O)CNC(=O)Cc3ccc(Cl)cc3)O2)c(=O)c1=O` [Compound 112, (2R,4S,5R,6R)-6-((1R,2R)-3-(2-(4-chlorophenyl)acetamido)-1,2-dihydroxypropyl)-2-((6-((3,4-dioxo-2-(prop-2-yn-1-ylamino)cyclobut-1-en-1-yl)amino)hexyl)oxy)-4-hydroxy-5-(2-hydroxyacetamido)tetrahydro-2H-pyran-2-carboxylic acid] was tested, and the Kd [1] was less than 1000 nM, the Kd [2] was less than 1000 nM and the Kd [3] was less than 1000 nM.

Work on `C#CCOCCCCCCO[C@]1(C(=O)O)C[C@H](O)[C@@H](NC(=O)CO)[C@H]([C@H](O)[C@H](O)CNC(=O)Cc2ccc(Cl)cc2)O1` [Compound 113, (2R,4S,5R,6R)-6-((1R,2R)-3-(2-(4-chlorophenyl)acetamido)-1,2-dihydroxypropyl)-4-hydroxy-5-(2-hydroxyacetamido)-2-((6-(prop-2-yn-1-yloxy)hexyl)oxy)tetrahydro-2H-pyran-2-carboxylic acid] yielded a Kd [1] of 1000 to 10000 nM, a Kd [2] of less than 1000 nM and a Kd [3] of less than 1000 nM.
